For 17 molecules, AC50 results are on record in US20240109905A1, “4-ALKOXY-6-OXO-PYRIDAZINE DERIVATIVES MODULATING NLRP3” (JANSSEN PHARMACEUTICA NV, priority 2021, published 2024).

Experiment [1] has as its system TNF. Put plainly: PBMC assay: TNF cytokine level after LPS stimulation. The experiment is classed as cell-based. The settings on record: human PBMCs, 30 min compound, 100 ng/ml LPS for 6 hrs, MSD. The method, boiled down: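 Thawed human PBMCs from healthy donors (7.5×10^4 per well, RPMI + 10% FBS) preincubated 30 min at 37° C with 1:3 serially diluted compounds, then stimulated 6 h with 100 ng/ml LPS (final). Supernatant TNF measured by MSD immunoassay; EC50/AC50 derived.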

The test system of experiment [2] is IL-1β. Put plainly: PBMC assay: IL-1β release after LPS stimulation. It counts as cell-based. The settings on record: human PBMCs, 30 min compound, 100 ng/ml LPS for 6 hrs, MSD, read-out: IL1β AC50. Put shortly:
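Thawed PBMCs from healthy donors (7.5×10^4 cells/well) were preincubated with serially diluted compound for 30 min at 37 °C, then stimulated with 100 ng/ml LPS (final) for 6 h. IL-1β in the supernatant was measured by MSD immunoassay, and AC50 values were derived from the concentration-response data.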

Each structure is given as a SMILES string. Where two headings read alike, the source gives them in different places. Bounds are passed on as bounds.

In general, AC50 refers to the concentration at which the activity in the assay is half-maximal. Turning to `CC(C)COc1cc(=O)n(CC(=O)NC23CCC(NC(=O)OC(C)(C)C)(C2)C3)nc1C(C)C` [Compound 115], the AC50 was over 20000 nM in experiment [1] (PBMC) and 1880 nM in experiment [2] (PBMC).

As for `CC(C)c1nn(CC(=O)Nc2ccc3nncn3c2)c(=O)cc1OC1CCOCC1` [Compound 26F], the figures for the concentration at half-maximal activity (AC50) in experiment [1] (PBMC) and in experiment [2] (PBMC) were over 10000 nM and 13600 nM, respectively.

In the case of `COc1ccn2nc(NC(=O)Cn3nc(C(C)C)c(OCC(C)C)cc3=O)nc2c1` [Compound 80], the AC50 in experiment [1] was over 20000 nM; in experiment [2], 450 nM.

As to `CCCS(=O)(=O)C12CC(NC(=O)Cn3nc(C(C)C)c(OCC(C)C)cc3=O)(C1)C2` [Compound 78, 2-(4-isobutoxy-3-isopropyl-6-oxopyridazin-1(6H)-yl)-N-(3-(propylsulfonyl)bicyclo[1.1.1]pentan-1-yl)acetamide], the figures for the AC50 in experiment [1] (PBMC) and in experiment [2] (PBMC) were over 20000 nM and 420 nM, respectively.

For the molecule `CC(C)c1nn(CC(=O)Nc2ccc3nncn3c2)c(=O)cc1OC(C)C(F)(F)F` (stereo not shown) [Compound 20F], the concentration at half-maximal activity (AC50) in experiment [1] (PBMC) is over 10000 nM; in experiment [2] (PBMC), 1290 nM.

Consider `CC(C)COc1cc(=O)n(CC(=O)Nc2ccc3nccn3n2)nc1C(C)C` [Compound 49], for which the AC50 in experiment [1] (PBMC) was over 20000 nM; in experiment [2] (PBMC), 90 nM.

On to `CC(C)COc1cc(=O)n(CC(=O)NC23CC(C(F)F)(C2)C3)nc1C(C)C` [Compound 83], for which the results for the AC50 in experiment [1] (PBMC) and in experiment [2] (PBMC) were over 20000 nM and 510 nM, respectively.

Take `CC(C)COc1cc(=O)n(CC(=O)Nc2cn3cccnc3n2)nc1C(C)C` [Compound 100]: the AC50 was found to be 4810 nM in experiment [1] (PBMC) and 1000 nM in experiment [2] (PBMC).

Regarding `CC(C)c1nn(CC(=O)Nc2ccc3nncn3c2)c(=O)cc1OC1CNC1` [Compound 161], the AC50 in experiment [1] (PBMC) and in experiment [2] (PBMC) was over 20000 nM each time.

Take `CC(C)COc1cc(=O)n(CC(=O)NC23CC(N)(C2)C3)nc1C(C)C` [Compound 117]: the half-maximal activity concentration (AC50) was over 20000 nM in experiment [1] (PBMC) and 2040 nM in experiment [2] (PBMC).

With `O=C(Cn1nc(OCC(F)(F)F)c(OCC(F)(F)F)cc1=O)Nc1ccc2nncn2c1` [Compound 156], the AC50 in experiment [1] (PBMC) and in experiment [2] (PBMC) was over 20000 nM in each case.

Turning to `CC(C)c1nn(CC(=O)Nc2ccc3nncn3n2)c(=O)c(Cl)c1OCCC(F)(F)F` [Compound 50], the AC50 in experiment [1] (PBMC) is 1620 nM; in experiment [2] (PBMC), 90 nM.

`Cc1cc(C(F)(F)F)n2nc(NC(=O)Cn3nc(C(C)C)c(OCC(C)C)cc3=O)nc2n1` [Compound 130, 2-(4-isobutoxy-3-isopropyl-6-oxopyridazin-1(6H)-yl)-N-(5-methyl-7-(trifluoromethyl)-[1,2,4]triazolo[1,5-a]pyrimidin-2-yl)acetamide]: the AC50 in experiment [1] (PBMC) is over 20000 nM; in experiment [2] (PBMC), 8730 nM.

With `COC(=O)CC12CC(NC(=O)Cn3nc(C(C)C)c(OCC(C)C)cc3=O)(C1)C2` [Compound 71, methyl 2-(3-(2-(4-isobutoxy-3-isopropyl-6-oxopyridazin-1(6H)-yl)acetamido)bicyclo[1.1.1]pentan-1-yl)acetate], the AC50 was over 20000 nM in experiment [1] (PBMC) and 260 nM in experiment [2] (PBMC).

Regarding `CC(C)COc1cc(=O)n(CC(=O)NC23CC(O)(C2)C3)nc1C(C)C` [Compound 82], the figures for the AC50 in experiment [1] (PBMC) and in experiment [2] (PBMC) were over 20000 nM and 500 nM, respectively.

For `CC(C)COc1cc(=O)n(CC(=O)Nc2nc3cc(Cl)ccc3n2C)nc1C(C)C` [Compound 150], the AC50 in experiment [1] (PBMC) and in experiment [2] (PBMC) was over 20000 nM each time.

Take `CC(C)COc1cc(=O)n(CC(=O)NC2(CC(=O)O)CCCC2)nc1C(C)C` [Compound 96]: the AC50 in experiment [1] was over 20000 nM; in experiment [2] it was 870 nM.
